Test results from patent US20160002204A1 (Board of Regents, The University of Texas System, priority 2014, published 2016).

Experiments:
[1] = molecular target: T1, GLS1 (purified recombinant human GAC) (Homo sapiens, UniProt O94925); assay: GLS1 enzymatic activity assay (dual-coupled, Amplex UltraRed/resorufin); type: biochemical
T1 sequence (O94925 55-598 isoform O94925-3 limits assumed): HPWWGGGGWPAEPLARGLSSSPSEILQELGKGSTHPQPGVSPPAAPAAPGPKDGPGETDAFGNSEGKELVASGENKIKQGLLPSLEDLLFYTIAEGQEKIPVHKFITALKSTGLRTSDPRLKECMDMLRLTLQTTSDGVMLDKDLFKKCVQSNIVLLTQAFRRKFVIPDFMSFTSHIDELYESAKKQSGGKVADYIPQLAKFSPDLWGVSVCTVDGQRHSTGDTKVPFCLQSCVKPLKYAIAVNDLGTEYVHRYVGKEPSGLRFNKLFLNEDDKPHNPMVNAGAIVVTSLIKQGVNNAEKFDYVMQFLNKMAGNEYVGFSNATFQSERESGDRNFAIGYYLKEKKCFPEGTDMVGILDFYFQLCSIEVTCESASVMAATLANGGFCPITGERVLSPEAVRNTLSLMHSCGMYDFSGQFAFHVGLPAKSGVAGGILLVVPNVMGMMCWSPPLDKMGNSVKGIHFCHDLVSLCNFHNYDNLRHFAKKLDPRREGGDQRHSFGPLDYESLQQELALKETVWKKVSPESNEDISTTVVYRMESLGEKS
Outline: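 GAC activity measured by coupling glutamate to glutamate oxidase and HRP, generating resorufin from Amplex UltraRed. Enzyme (2 nM) preincubated with 50 mM potassium phosphate 10 min at room temperature, then inhibitor 10 min; 1 mM glutamine substrate, 1% DMSO. Fluorescence 530/590 nm, kinetic or 20-min endpoint; IC50 from four-parameter logistic fit.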

A549 cells = assay: A549 proliferation (viability) assay, Cell Titer Fluor, 72 hours; type: cell-based; details: Homo sapiens
Method: A549 cells were routinely maintained in RPMI 1640 media (Gibco catalog number 11875-093) supplemented with 10% dialyzed fetal bovine serum using a humidified incubator (37° C., 5% CO2 and ambient O2). In preparation for the viability assay, cells were inoculated into 384-well black CulturPlates (Perkin Elmer) at a density of 1000 cells/well in a volume of 40 uL. Following a 24-hour incubation at 37° C., 5% CO2 and ambient O2, cells were treated with compound (10 uL) in a final DMSO concentration of 0.5% (v/v). The microplates were then incubated for 72 hours (37° C., 5% CO2 and ambient O2). Cell Titer Fluor (Promega) was subsequently added (10 uL of 6× reagent) and mixed for 15 minutes at room temperature. The plates were then incubated for 30 minutes (37° C., 5% CO2 and ambient O2) and fluorescence was subsequently read on the Perkin Elmer Envision plate reader. EC50 values were calculated using a four-parameter logistic curve fit.

Row | SMILES | IC50 [1] [nM] | EC50 (A549 cells) [nM]
1 | O=C(Cc1ccccc1)Nc1ccn(CCCCn2cc(C(=O)NCc3cccc(OC(F)(F)F)c3)nn2)c(=O)c1 [Example 33, 1-{4-[2-oxo-4-(2-phenylacetamido)-1,2-dihydropyridin-1-yl]butyl}-N-{[3-(trifluoromethoxy)phenyl]methyl}-1H-1,2,3-triazole-4-carboxamide] | < 100 | 100 to 500
2 | O=C(CC1CCC1)Nc1cnn(CCC(F)Cn2cc(C(=O)NCc3cc(C(F)(F)F)ccn3)nn2)c(=O)c1 (centres unmarked) [Example 401, 1-{4-[4-(2-cyclobutylacetamido)-6-oxo-1,6-dihydropyridazin-1-yl]-2-fluorobutyl}-N-{[4-(trifluoromethyl)pyridin-2-yl]methyl}-1H-1,2,3-triazole-4-carboxamide] | < 100 | 100 to 500
3 | O=C(CC1CCCCC1)Nc1ccn(CCC(F)Cn2cc(C(=O)NCc3cc(C(F)(F)F)ccn3)nn2)c(=O)c1 (centres unmarked) [Example 178, 1-{4-[4-(2-cyclohexylacetamido)-2-oxo-1,2-dihydropyridin-1-yl]-2-fluorobutyl}-N-{[4-(trifluoromethyl)pyridin-2-yl]methyl}-1H-1,2,3-triazole-4-carboxamide] | < 100 | < 100
4 | O=C(Cc1cccnc1)Nc1ccn(CCCCc2nnc(NC(=O)Cc3ccccc3)s2)c(=O)n1 [Example 82, N-[5-(4-{2-oxo-4-[2-(pyridin-3-yl)acetamido]-1,2-dihydropyrimidin-1-yl}butyl)-1,3,4-thiadiazol-2-yl]-2-phenylacetamide] | < 100 | > 5000
5 | O=C(CC1CCCCC1)Nc1ccn(CCC(F)Cn2cc(C(=O)NCc3ccccn3)nn2)c(=O)c1F (centres unmarked) [Example 267, 1-{4-[4-(2-cyclohexylacetamido)-3-fluoro-2-oxo-1,2-dihydropyridin-1-yl]-2-fluorobutyl}-N-(pyridin-2-ylmethyl)-1H-1,2,3-triazole-4-carboxamide] | < 100 | < 100
6 | Nc1ccn(CCCCn2cc(C(=O)NCc3cccc(OC(F)(F)F)c3)nn2)c(=O)c1 [Example 4, 1-(4-(4-Amino-2-oxopyridin-1(2H)-yl)butyl)-N-(3-(trifluoromethoxy)benzyl)-1H-1,2,3-triazole-4-carboxamide] | 500 to 5000 | > 5000
7 | O=C(Nc1ccn(CCCCc2nnc(C(=O)NCc3cc(C(F)(F)F)ccn3)s2)c(=O)c1F)OC1CCC1 [Example 469, cyclobutyl N-(3-fluoro-2-oxo-1-{4-[5-({[4-(trifluoromethyl)pyridin-2-yl]methyl}carbamoyl)-1,3,4-thiadiazol-2-yl]butyl}-1,2-dihydropyridin-4-yl)carbamate] | < 100 | 100 to 500
8 | O=C(NCc1cccc(OC(F)(F)F)c1)c1cn(CC(F)CCn2ccc(COc3ccc(F)cc3F)cc2=O)nn1 (centres unmarked) [Example 478, 1-{4-[4-(2,4-difluorophenoxymethyl)-2-oxo-1,2-dihydropyridin-1-yl]-2-fluorobutyl}-N-{[3-(trifluoromethoxy)phenyl]methyl}-1H-1,2,3-triazole-4-carboxamide] | < 100 | 100 to 500
9 | O=C(Cc1cccc(OC(F)(F)F)c1)Nc1ccn(CCCCc2nnc(C(=O)NCc3ccccn3)s2)c(=O)c1 [Example 446, 5-[4-(2-oxo-4-{2-[3-(trifluoromethoxy)phenyl]acetamido}-1,2-dihydropyridin-1-yl)butyl]-N-(pyridin-2-ylmethyl)-1,3,4-thiadiazole-2-carboxamide] | < 100 | 100 to 500
10 | CC(C(=O)Nc1ccn(CCC(F)Cn2cc(C(=O)NCc3cccc(OC(F)(F)F)c3)nn2)c(=O)c1F)N1CCCCC1 (centres unmarked) [Example 337, 1-(2-fluoro-4-(3-fluoro-2-oxo-4-(2-(piperidin-1-yl)propanamido)pyridin-1(2H)-yl)butyl)-N-(3-(trifluoromethoxy)benzyl)-1H-1,2,3-triazole-4-carboxamide] | < 100 | < 100
11 | O=C(Cc1ccccc1)Nc1ccn(CCCCc2nnc(NC(=O)Cc3cccnc3)s2)c(=O)n1 [Example 16, N-(2-oxo-1-(4-(5-(2-(pyridin-3-yl)acetamido)-1,3,4-thiadiazol-2-yl)butyl)-1,2-dihydropyrimidin-4-yl)-2-phenylacetamide] | < 100 | 500 to 5000
12 | O=C(Cc1cccc(OC(F)(F)F)c1)Nc1ccn(CCCCn2cc(C(=O)NCC3CCCCC3)nn2)c(=O)c1 [Example 41, N-(cyclohexylmethyl)-1-[4-(2-oxo-4-{2-[3-(trifluoro-methoxy)phenyl]acetamido}-1,2-dihydropyridin-1-yl)butyl]-1H-1,2,3-triazole-4-carboxamide] | < 100 | 500 to 5000
13 | O=C(CC1CCCC1)Nc1ccn(CCC(F)Cn2cc(C(=O)NCc3ccc(OC(F)(F)F)cn3)nn2)c(=O)c1F (centres unmarked) [Example 400, 1-{4-[4-(2-cyclopentylacetamido)-3-fluoro-2-oxo-1,2-dihydropyridin-1-yl]-2-fluorobutyl}-N-{[5-(trifluoromethoxy)pyridin-2-yl]methyl}-1H-1,2,3-triazole-4-carboxamide] | < 100 | < 100
14 | O=C(Cc1ccccc1)Nc1ccc(CCCCn2ccc(NC(=O)Cc3ccccc3)nc2=O)nn1 [Example 20, N-(2-oxo-1-(4-(6-(2-phenylacetamido)pyridazin-3-yl)butyl)-1,2-dihydropyrimidin-4-yl)-2-phenylacetamide] | < 100 | < 100
15 | O=C(Cc1ccccc1)Nc1ccn(CCCCCn2ccc(NC(=O)Cc3ccccc3)nc2=O)c(=O)n1 [Example 71, N-(2-oxo-1-{5-[2-oxo-4-(2-phenyl-acetamido)-1,2-dihydropyrimidin-1-yl]pentyl}-1,2-dihydropyrimidin-4-yl)-2-phenylacetamide] | 500 to 5000 | > 5000
16 | O=C(NCc1cccc(OC(F)(F)F)c1)c1cn(CC(F)CCn2ccc(COc3ccccn3)cc2=O)nn1 (centres unmarked) [Example 480, 1-(2-fluoro-4-{2-oxo-4-[(pyridin-2-yloxy)methyl]-1,2-dihydropyridin-1-yl}butyl)-N-{[3-(trifluoromethoxy)phenyl]methyl}-1H-1,2,3-triazole-4-carboxamide] | 100 to 500 | 500 to 5000
17 | O=C(NCc1cccc(OC(F)(F)F)c1)c1cn(CC(F)CCn2ccc(COc3ccc(Cl)cc3)cc2=O)nn1 (centres unmarked) [Example 477, 1-{4-[4-(4-chlorophenoxymethyl)-2-oxo-1,2-dihydropyridin-1-yl]-2-fluorobutyl}-N-{[3-(trifluoromethoxy)phenyl]methyl}-1H-1,2,3-triazole-4-carboxamide] | < 100 | 100 to 500
18 | COCCOC(=O)Nc1ccn(CCCCc2ccc(NC(=O)Cc3cccc(OC(F)(F)F)c3)nn2)c(=O)n1 [Example 112, 2-methoxyethyl N-{2-oxo-1-[4-(6-{2-[3-(trifluoro-methoxy)phenyl]acetamido}pyridazin-3-yl)butyl]-1,2-dihydropyrimidin-4-yl}carbamate] | < 100 | 100 to 500
19 | O=C(Cc1ccccc1)Nc1nnc(CCCCn2ccc(NC(=O)CC3CCCC3)c(F)c2=O)s1 [Example 502, 2-cyclopentyl-N-(3-fluoro-2-oxo-1-{4-[5-(2-phenylacetamido)-1,3,4-thiadiazol-2-yl]butyl}-1,2-dihydropyridin-4-yl)acetamide] | < 100 | 100 to 500
20 | O=C(CC1CCC1)Nc1ccn(CCC(F)Cn2cc(C(=O)NCc3ccc(C(F)(F)F)cn3)nn2)c(=O)c1F (centres unmarked) [Example 390, 1-{4-[4-(2-cyclobutylacetamido)-3-fluoro-2-oxo-1,2-dihydropyridin-1-yl]-2-fluorobutyl}-N-{[5-(trifluoromethyl)pyridin-2-yl]methyl}-1H-1,2,3-triazole-4-carboxamide] | 100 to 500 | < 100
21 | CC(=O)OC(C(=O)Nc1ccn(CC[C@@H](F)Cn2cc(C(=O)NCc3cccc(OC(F)(F)F)c3)nn2)c(=O)c1F)c1ccccc1 (stereo in doubt) [Example 306, (R)-[(3-fluoro-1-{3-fluoro-4-[4-({[3-(trifluoromethoxy)phenyl]methyl}carbamoyl)-1H-1,2,3-triazol-1-yl]butyl}-2-oxo-1,2-dihydropyridin-4-yl)carbamoyl](phenyl)methyl acetate] | < 100 | < 100
22 | CC(C)CNC(=O)c1cn(CCCCn2ccc(NC(=O)Cc3ccccc3)cc2=O)nn1 [Example 35, N-(2-methylpropyl)-1-{4-[2-oxo-4-(2-phenylacetamido)-1,2-dihydropyridin-1-yl]butyl}-1H-1,2,3-triazole-4-carboxamide] | 500 to 5000 | > 5000
